{"source": "patent US4672058A", "about": "“N[[5-(trifluoromethyl)-6-methoxy-1-naphthalenyl]-thioxomethyl]-N -methylglycinamides” (American Home Products Corporation, priority 1985, dated 1987)", "key": {"aldose reductase": {"tested_on": "aldose reductase", "conditions": "literature, in words; cited from earlier work"}, "accumulation of dulcitol": {"tested_on": "accumulation of dulcitol", "experiment": "Lowering of dulcitol accumulation in lens, sciatic nerve and diaphragm of galactosemic rats (in vivo)", "design": "species or system rat (Sprague-Dawley, male)", "conditions": "for % lowering dulcitol accumulation in vivo, D: diaphragm", "from_the_text": "Such experiments are exemplified hereinbelow after the listing of the following general comments pertaining to these experiments:\n(a) Four or more groups of six male rats, 50-70 g, Sprague-Dawley strain, were used. The first group, the control group, was fed a mixture of laboratory chow (rodent Laboratory Chow, Purina) and glucose at 20% (w/w %) concentration. The untreated galactosemic group was fed a similar diet in which galactose is substituted for glucose. The third group was fed a diet prepared by mixing a given amount of the test compound with the galactose containing diet. The concentration of galactose in the diet of the treated groups was the same as that for the untreated galactosemic group.\n(b) After four days, the animals were killed by decapitation. The eyeballs were removed and punctured with a razor blade; the freed lenses were rolled gently on filter paper and weighed. The sciatic nerves were dissected as completely as possible and weighed. Both tissues when frozen can be kept up to two weeks before being analyzed for dulcitol.\n(c) The polyol determination was performed by a modification of the procedure of M. Kraml and L. Cosyns, Clin. Biochem., 2,373 (1969). Only two minor reagent changes were made: (a) The rinsing mixture was an aqueous 5% (w/v) trichloroacetic acid solution and (b) the stock solution was prepared by dissolving 25 mg of dulcitol in 100 ml of an aqueous trichloroacetic acid solution. [N.B.: For each experiment the average value found in the tissue from rats fed the glucose diet was subtracted from the individual values found in the corresponding tissue in galactose-fed rats to obtain the amount of polyol accumulated.] […] In the present case the procedure of Hayman and Kinoshita was modified in that the final chromatography step was omitted in the preparation of the enzyme from bovine lens.\nThe figures under L, N and D represent the percentage decrease of dulcitol accumulation in the tissues of the lens, sciatic nerve and diaphragm, respectively, for treated rats as compared to untreated rats."}}, "data": [{"smiles": "O=C(O)CN1C(=O)c2cccc3cccc(c23)C1=O", "note": "[1,3-Dioxo-1H-benz[de]isoquinoline-2(3H)-acetic acid]", "values": [{"measurement": "inhibition of aldose reductase, as reported", "setting": "aldose reductase", "value": "effective inhibitor of aldose reductase"}]}, {"smiles": "COc1ccc2c(C(=S)N(C)CC(N)=O)cccc2c1C(F)(F)F", "note": "[Compound 1, N-[[5-(trifluoromethyl)-6-methoxy-1-naphthalenyl]-thioxomethyl]-N-methylglycinamide]", "values": [{"measurement": "% lowering dulcitol accumulation in vivo, D", "setting": "accumulation of dulcitol; 5 mg/kg/day in diet, 4 days", "value": 66, "unit": "%"}, {"measurement": "results compared with N-[[5-(trifluoromethyl)-6-methoxy-1-naphthalenyl]-thioxomethyl]-N-methylglycine (tolrestat)", "setting": "accumulation of dulcitol; dose of 5 mg/kg/day, in words", "value": "comparable results"}]}, {"smiles": "COc1ccc2c(C(=S)N(C)CC(=O)N(C)C)cccc2c1C(F)(F)F", "note": "[Compound 3, 2-[[[6-Methoxy-5-(trifluoromethyl)-1-naphthalenyl]thioxomethyl]methylamino]-N,N-dimethylacetamide]", "values": [{"measurement": "% lowering dulcitol accumulation in vivo, D", "setting": "accumulation of dulcitol; 55 mg/kg/day in diet, 4 days", "value": 85, "unit": "%"}]}, {"smiles": "COC(=N)NC(=O)CN(C)C(=S)c1cccc2c(C(F)(F)F)c(OC)ccc12", "note": "[Compound 4, N-[[[[5-(Trifluoromethyl)-6-methoxy-1-naphthalenyl]thioxomethyl]methylamino]acetyl]carbamimidic Acid, Methyl Ester]", "values": [{"measurement": "% lowering dulcitol accumulation in vivo, D", "setting": "accumulation of dulcitol; 26 mg/kg/day in diet, 4 days", "value": 76, "unit": "%"}, {"measurement": "% lowering dulcitol accumulation in vivo, L", "setting": "accumulation of dulcitol; lens, 26 mg/kg/day in diet, 4 days", "value": 13, "unit": "%"}]}, {"smiles": "COc1ccc2c(C(=S)N(C)CC(=O)NC(N)=O)cccc2c1C(F)(F)F", "note": "[Compound 5, [[[5-(Trifluoromethyl)-6-methoxy-1-naphthalenyl]thioxomethyl](methylamino)acetyl]urea]", "values": [{"measurement": "% lowering dulcitol accumulation in vivo, D", "setting": "accumulation of dulcitol; 23 mg/kg/day in diet, 4 days", "value": 64, "unit": "%"}]}, {"smiles": "COC(=O)NC(=O)CN(C)C(=S)c1cccc2c(C(F)(F)F)c(OC)ccc12", "note": "[Compound 6, [[[5-(Trifluoromethyl)-6-methoxy-1-naphthalenyl]thioxomethyl](methylamino)acetyl]carbamic acid, Methyl Ester]", "values": [{"measurement": "% lowering dulcitol accumulation in vivo, D", "setting": "accumulation of dulcitol; 8.4 mg/kg/day in diet, 4 days", "value": 69, "unit": "%"}, {"measurement": "% lowering dulcitol accumulation in vivo, D", "setting": "accumulation of dulcitol; 26 mg/kg/day in diet, 4 days", "value": 88, "unit": "%"}]}, {"smiles": "COc1ccc2c(C(=S)N(C)CC(=O)N[C@H]3C(O)O[C@H](CO)[C@@H](O)[C@@H]3O)cccc2c1C(F)(F)F", "note": "(stereo partly drawn) [Compound 7, 2-Deoxy-2-[[[[[6-methoxy-5-(trifluoromethyl)-1-naphthalenyl]thioxomethyl]methylamino]acetyl]amino]-D-glucose]", "values": [{"measurement": "% lowering dulcitol accumulation in vivo, D", "setting": "accumulation of dulcitol; 161 mg/kg/day in diet, 4 days", "value": 37, "unit": "%"}]}, {"smiles": "O=C1NC(=O)[C@@]2(CCOc3ccc(F)cc32)N1", "note": "[sorbinil, (S)-6-Fluoro-2,3-dihydrospiro(4H-1-benzopyran-4,4'-imidazolidine)-2',5'-dione]", "values": [{"measurement": "inhibition of aldose reductase, as reported", "setting": "aldose reductase", "value": "aldose reductase inhibiting properties"}]}]}
